How the values were obtained:
U-251 cells [1] = experiment: Hoechst viability assay, U-251 glioma cells; format: cell-based, human; details: 72 hours, Hoechst
Procedure: (§1) Cells (in quadruplicate) at the specified density were suspended in 200 μL medium supplemented with 10% FCS seeded in 96-well plates for 24 hours, then exposed to the drugs for 72 hours. The viability of the cells was determined by Hoechst fluorescent assay as described by Nudelman et al., 2005. Leukemic cell viability after 72 hours of treatment was determined by an MTT (3-(4,5-dimethylthiazol-2-yl)-2,5-diphenyltetrazolium bromide) assay as described by Levovich et al., 2007.
(§2) IC50 values were determined by linear regression of the percentage of survival following drug titration.

22RV1 cells = experiment: Hoechst viability assay, 22RV1 prostate carcinoma cells; format: cell-based, human; details: 72 hours, Hoechst
Procedure: as §1, §2

U-251 cells [2] = experiment: Apoptosis/cell death by annexin V-FITC and propidium iodide FACS, U-251 cells; format: cell-based; details: Homo sapiens; U-251 glioblastoma cells, 50 μM, 24 hours (untreated 9%)
Procedure: Cells were seeded in six-well plates (10^5 cells/well) for 24 hours and were then treated as specified, trypsinized, washed with PBS, double-stained with annexin V-FITC (fluorescein isothiocyanate) and propidium iodide, according to the manufacturer's instructions and subjected to flow cytometry analysis (FACScalibur cytometer, Becton Dickinson).

U-251 cells [3] = experiment: Mitochondrial membrane potential (JC-1 staining), U-251 cells; format: cell-based, human; details: 60 μM, 24 hour treatment
U-251 cells [4] = experiment: Reactive oxygen species by DCF-DA FACS, U-251 cells; format: cell-based, human; details: 2 hour treatment
Procedure: ROS levels were determined by FACS analysis of U-251 cells treated with dichlorodihydrofluorescein diacetate (DCF-DA), which becomes fluorescent when oxidized.

proteasome = target: T1, proteasome (Homo sapiens, UniProt P28074); experiment: Proteasome activity assay, U-251 cells; format: cell-based; details: 4 or 24 hours, alone or in combination
T1 construct: proteasome activity in U-251 cells treated for 4 or 24 hours; endogenous in cells; host or cells: U-251 cells (lysates of treated cells)
T1 sequence (P28074 60-263): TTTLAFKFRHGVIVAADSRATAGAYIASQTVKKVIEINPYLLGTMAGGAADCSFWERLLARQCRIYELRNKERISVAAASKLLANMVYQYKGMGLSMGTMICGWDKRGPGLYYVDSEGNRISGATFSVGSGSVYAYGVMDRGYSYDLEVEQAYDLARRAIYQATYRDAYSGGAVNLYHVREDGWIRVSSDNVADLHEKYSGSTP
Procedure: The peptidase or chymotrypsin-like activity of the proteasome was assayed using N-succinyl-Leu-Leu-Val-Tyr-7-amido-4-methylcoumarin. The lysates (100 μL) were incubated with 13 (M of the substrate in 100 mM Tris, pH 7.5, for 1 hour with shaking at room temperature. The reaction was stopped by addition of ice-cold ethanol, and the samples were centrifuged for 5 minutes at 2500 g. The supernatants were collected and the fluorescence was measured with excitation/emission filters of 390/460 nm using the FluoStar fluorimeter. The protein concentration was determined using a BCATM kit (Pierce) and the proteasome activity was derived from the ratio of fluorescence at 460 nm/(g of protein. The percentage of proteasome activity was calculated relative to untreated cells.

U-251 cells [5] = experiment: Cell cycle analysis (propidium iodide flow cytometry), U-251 cells; format: cell-based, human; details: 24 hours
Procedure: Cells (4×10^5) were seeded in 35 mm culture dishes and after 24 hours were starved in medium without serum for an additional 24 hours, and then treated with the drug for an additional 24 hours. The cells were then trypsinized to a single cell suspension in PBS, washed, and resuspended in PBS at a concentration of 10^6 cells/mL. The cells were fixed with 70% ethanol for 30 minutes at 4° C., centrifuged and resuspended in 1 ml PBS containing 0.1% Tween 20 and 0.05% bovine serum albumin (BSA). RNase free of DNase was added, and the cell suspension (10^6 cells) was incubated at […] for 30 minutes. The cell suspension was then chilled on ice to a temperature in the range of 2 to 8° C. Propidium iodide (50 μg/mL) was added to the cell suspension, which was than kept in the dark. Red fluorescence (>630 nm) was analyzed on the flow cytometer.

acetylated histone H4 = experiment: Histone H4 acetylation Western blot, U-251 cells; format: cell-based, human; details: 2-4 hours of treatment
Procedure: For the determination of in vitro histone acetylation, 2.5-3×10^6 cells, seeded in 100 mm culture dishes, were supplemented with RPMI medium containing 10% heat inactivated FCS and were treated with the drugs the following day. At the specified times post-treatment, the cells were removed with a rubber policeman, centrifuged, washed, lysed with lysis buffer (PBS, Nonidet® NP-40 1%, sodium deoxycholate 0.5%, sodium dodecyl sulfate (SDS) 0.1%, 1 mM phenylmethylsulfonyl fluoride (PMSF), 1 mM sodium orthovanadate, and 1 μM each of leupeptin and pepstatin) and centrifuged at 10,000 g for 10 minutes at 4° C. […] The extract was then lyophilized, and protein concentration was determined with a BCA kit (Pierce, USA). […] The fold increase of acetylated histones was determined by the ratio of band intensities of treated and untreated cells or mice, normalized to loading control (total histone H3).
Cell lysates or acid extracted histones were solubilized in a concentrated (×4) loading buffer (62.5 mM Tris-HCl, pH 6.8, 1% SDS, 10% glycerol v/v, 1% dithiothreitol (DTT) and 0.1 mg/ml bromophenol blue). […] The membrane was exposed for 5 minutes to Chemiluminescence BioMax light film (Kodak, USA) and the intensity of the bands was measured with a VersaDoc instrument with a Quantityl program (Bio-Rad, USA). […]

[6] = tested on: kinases which phosphorylate acyclovir; experiment: Acyclovir phosphorylation (viral thymidine kinase activity) in 4T1 cell extracts; format: cell-based, murine; details: 4T1 cells, 24 hours, 40 μM
Procedure: The mammalian thymidine kinase (TK) has a narrow specificity and acts only on thymidine. […] The lysates obtained were kept at −70 ° C. until analyzed either spectroscopically or by RT-PCR. […] The ADP is converted to ATP by pyruvate kinase when it hydrolyzes phosphoenolpyruvate (PEP) to pyruvate. Lactate dehydrogenase then converts pyruvate to lactate and NADH to NAD^+. The decrease in fluorescence emitted by NADH (excitation/emission of 320/460 nm) during 10 cycles, each lasting 1 minute, were monitored using a FluoStar fluorometer. The reaction velocity was determined by the slope of the fluorescence vs. time.

herpes virus = details: Brigden & Whiteman, 1983; cited from earlier work

Compound: Nc1nc2c(ncn2COCCO)c(=O)[nH]1 [acyclovir, reference compound]
- IC50 (U-251 cells [1]): could not be reached
- IC50 (22RV1 cells): could not be reached
- mortality at 50 µM (U-251 cells [2]): 11%
- mitochondrial membrane potential (U-251 cells [3]): no apparent effect
- level of oxidation in cells (ROS) (U-251 cells [4]): little if any effect
- inhibitory effect on proteasome activity (proteasome): only a marginal inhibitory effect
- phase of cell-cycle arrest (U-251 cells [5]; 1 mM): S phase
- Percentage of cells in G0-G1 stage (U-251 cells [5]; 1000 μM): 14.1%
- Percentage of cells in G2-M stage (U-251 cells [5]; 1000 μM): 12.2%
- Percentage of cells in S stage (U-251 cells [5]; 1000 μM): 73.6%
- acetylation of histone H4 (acetylated histone H4): did not
- rate of acyclovir phosphorylation (kinase activity) [6]: no effect on the kinase activity
- inhibition of herpes virus replication at concentrations lower than those inhibiting mammalian cellular functions (herpes virus): 300-3000 fold

— patent US9334272B2, “Derivatives of purinic and pyrimidinic antiviral agents and use thereof as potent anticancer agents” (Ramot at Tel-Aviv University Ltd., priority 2007, dated 2016)
